Experimental findings from US11154543B2, “P38 MAP kinase inhibitors for wound healing” (The Schepens Eye Research Institute, Inc., priority 2015, dated 2021) are described below.

“Also recorded” adds a separate entry of the source.

Common to all, as to assay type: cell-based
The test system of experiment [1] is human corneal fibroblasts (HCF). Put plainly: αSMA western blot in human corneal fibroblasts ± TGF-β1. The note with it: for αSMA protein expression in the presence of TGF-β1: inhibitor 24 h, then inhibitor + TGF-β1 24 h, Birb-796 10 μM, SB239063 20 μM, SB203580 5 uM, compared with HCF+TGF-β1; for αSMA expression (ratio of αSMA to β actin), TGF-β1-induced increase: serum-free, 10 uM inhibitor pre-treatment 24 h, then inhibitor + 2 ng/ml TGF-β1 24 h, compared with TGF-β1 alone (lane 2). As for the experimental part: FIG. 1 is an image of a representative western blot of human corneal fibroblasts cultured with 1) Basic Medium (BM: Eagles minimum essential medium) for 48 hours; 2) BM for 24 hours, then BM+TGF-β1 for 24 hours, 3) BM for 24 hours, then BM+p38 inhibitor for 24 hours, and 4) BM+p38 Inhibitor for 24 hours, then BM+p38 inhibitor+TGFβ1. Graph of SMA corrected per lane with internal control (β-actin).
FIG. 4 is a graph depicting analysis of αSMA protein expression in human corneal fibroblasts cultured with 1) Basic Medium (BM: Eagles minimum essential medium) for 48 hours; 2) BM for 24 hours, then BM+TGF-β1 for 24 hours, 3) BM for 24 hours, then BM+Birb-796 for 24 hours, 4) BM+Birb-796 for 24 hours, then BM+Birb-796+TGF-β1 for 24 hours; 5) BM for 24 hours, then BM+SB239063 for 24 hours; 6) BM+SB239063 for 24 hours, then BM+SB239063+TGF-β1 for 24 hours; 7) BM for 24 hours, then BM+SB203580 for 24 hours; and 8) BM+SB203580 for 24 hours, then BM+SB203580+TGF-β1 for 24 hours. Graph of SMA corrected per lane with internal control (β-actin).
The protocol for alpha smooth muscle actin (αSMA) testing in human corneal fibroblasts (HCF) is shown below using treatment with/without p38 inhibitor (SB202190) as an example treatment. • 1. Grow HCF (human corneal fibroblast cells) in 100 mm dishes (×12). • 2. When cells get 60-70% confluent, rinse with PBS for 3 times. Then: • a. Put serum-free EMEM to starve cells overnight. (9×) • b. Put serum-free EMEM with 10 uM of p38 inhibitor (SB202190) overnight to pre-treat cells. (3×) • 3. Next day, treat cells as follows and incubate overnight: • c. 10 ml of serum-free EMEM (3×) • d. 10 ml of serum-free EMEM with 2 ng/ml of TGF-β1. (3×) • e. 10 ml of serum-free EMEM with 10 uM of p38 inhibitor (SB202190). (3×) • f. 10 ml of serum-free EMEM with 10 uM of p38 inhibitor (SB202190) and 2 ng/ml of TGF-β1 into pre-treated dishes (2b). (3×) • 4. Harvest cells by trypsinization and store cells at −80° C.
Samples were lysed with RIPA buffer and western blot analysis was performed, as previously described (Chung E H, IOVS 1999; 40:1952-8) with minor changes. Membranes with separated proteins were probed with anti-αSMA (alpha-smooth muscle actin) and β-Actin (beta-actin) according to the protocol in Example 1. After reaction with corresponding DyLight secondary antibodies, membranes were scanned on Odyssey and software was used to measure the bands (ImageJ, v. 1.5), and the data was analyzed and plotted (Prism 5.0; GraphPad software).
The above protocol was utilized to assay αSMA expression in human corneal and skin fibroblasts under different culture conditions, including in the presence of p38 inhibitor. […] In FIG. 3, high levels of αSMA indicate that most dermal fibroblasts in culture were already myofibroblast cells (lane 1).
Three additional p38 inhibitors shown in Table 1 below were test in HCF. […] The concentrations of these three inhibitors were not optimized and it is believed that with higher concentration of these p38 inhibitors, αSMA expression will be decreased to a greater extent.
(In western blotting, separated proteins are transferred to a membrane and probed.)

A further experiment relates to human dermal fibroblasts. The experiment is described as follows: αSMA western blot in human dermal fibroblasts ± TGF-β1. To be noted: BM+10% FBS, p38 inhibitor 24 h pre-treatment ± TGF-β1, compared with normal culture (lane 1) and T1 (lane 2). As for the experimental part: FIG. 3 is an image of a representative western blot of human dermal fibroblasts cultured with 1) Basic Medium (BM: Eagles minimum essential medium)+10% FBS for 48 hours; 2) BM+10% FBS for 24 hours, then BM+10% FBS+TGFβ1 for 24 hours, 3) BM+10% FBS for 24 hours, then BM+10% FBS+p38 inhibitor for 24 hours, and 4) BM+10% FBS+p38 Inhibitor for 24 hours, then BM+10% FBS+p38 inhibitor+TGF-β1. Graph of SMA corrected per lane with internal control (β-actin).
The protocol for alpha smooth muscle actin (αSMA) testing in human corneal fibroblasts (HCF) is shown below using treatment with/without p38 inhibitor (SB202190) as an example treatment. • 1. Grow HCF (human corneal fibroblast cells) in 100 mm dishes (×12). • 2. When cells get 60-70% confluent, rinse with PBS for 3 times. Then: • a. Put serum-free EMEM to starve cells overnight. (9×) • b. Put serum-free EMEM with 10 uM of p38 inhibitor (SB202190) overnight to pre-treat cells. (3×) • 3. Next day, treat cells as follows and incubate overnight: • c. […]
Samples were lysed with RIPA buffer and western blot analysis was performed, as previously described (Chung E H, IOVS 1999; 40:1952-8) with minor changes. […] After reaction with corresponding DyLight secondary antibodies, membranes were scanned on Odyssey and software was used to measure the bands (ImageJ, v. 1.5), and the data was analyzed and plotted (Prism 5.0; GraphPad software). […]

The test system of experiment [2] is human corneal fibroblasts. The experiment is described as follows: Indirect immunofluorescence of SMA in human corneal fibroblasts. The note with it: HCF; p38 inhibitor 24 h, then p38 inhibitor + TGF-β1; compared with TGF-β1 alone (FIG. 2B). An excerpt:
FIGS. 2A-2D are representative indirect immunofluorescent images of human corneal fibroblasts. […] Grey stripes staining=SMA and grey dots staining=DAPI, a nuclear counterstain. […] This is in agreement with the western blot in FIG. 1.

Experiment [3] deals with human corneal 3-D constructs (HCF and their self-assembled matrix). The experiment is described as follows: αSMA western blot in human corneal 3-D stromal constructs. The protocol: FIG. 6 includes a bar graph and a western blot showing analysis of αSMA expression in human corneal 3-D constructs. Human Corneal Fibroblasts (HCF) were cultured as follows: 1) RM (Regular Medium: Eagle's minimum essential medium+10% FBS for 9 days); 2) T1 (RM for 24 hours, then RM+2 ng/ml of TGF-beta (T1) for 8 days); 3) p38 inhibitor (p38inh) (RM for 24 hours, then RM+10 μM of p38 inhibitor [SB202190] for 8 days); and 4) T1+p38inh (RM+SB202190 for 24 hours, then RM+SB202190+TGF-1 for 8 days). Graph of αSMA corrected per lane with internal control (β-actin). […] The western blot is shown in the upper right corner.
Data shown in previous figures were generated using cells in culture. […] The system a cell-based 3-D corneal stromal construct containing human corneal fibroblasts (HCF) and their self-assembled matrix. This art-recognized model mimics stromal development and wound healing. To test this, we cultured human corneal fibroblasts (HCF) in 0.5 mM Vitamin C±2 ng/ml TGF-β1 (T1) and/or 10 μM p38 inhibitor #1 (SB202190) for 9 days. The media was changed every day. After 9 days, the samples were harvested and analyzed for αSMA by western blot (WB). […] The data also indicate that p38 inhibitor(s) inhibit scar formation during corneal wound healing.

In experiment [4] the test system is human corneal myofibroblasts (T1-treated HCF). The experiment is described as follows: Reversal of αSMA in TGF-β1-differentiated human corneal myofibroblasts (western blot). The note with it: HCF pre-treated 2 ng/ml T1 for 3 days. The protocol: FIGS. 7A and 7B show analysis of αSMA expression in HCF cultured as follows: 1) HCF: RM, 2) T1: RM+T1 (for 3 days), or 3) RM+T1 for 3 days, then RM±p38inh for 1 (D1), 2 (D2), or 3 days (D3). (A) Representative western blot.
In this experiment, we examined if p38 inhibitor could not only reduce, but reverse αSMA levels, thus converting myofibroblasts back to their fibroblastic phenotype. To do this, HCF were treated with 2 ng/ml of T1 for 3 days. This allowed for the majority of the HCF to differentiate to their myofibroblastic phenotype with high levels of αSMA expression. After rinsing with PBS three times, these T1-treated cells were split into two groups: 1) regular medium (RM) and 2) p38 inhibitor (p38inh) medium. Media was changed every day. Cells were harvested after 1, 2, or 3 days for αSMA analysis by WB. […] The T1 cells then were split into two groups, RM or p38inh, and the appropriate medium was applied. […] On day 3 (D3), αSMA levels in both media samples decreased.

For the compound `Cc1ccc(-n2nc(C(C)(C)C)cc2NC(=O)Nc2ccc(OCCN3CCOCC3)c3ccccc23)cc1` [Birb-796, Doramapimod], the “αSMA protein expression in the presence of TGF-β1” value (“αSMA protein expression” below) in experiment [1] is given as “significantly different”.
In the case of `C[S+]([O-])c1ccc(-c2nc(-c3ccc(F)cc3)c(-c3ccncc3)[nH]2)cc1` (centres unmarked) [SB203580, 4-(4′-Fluorophenyl)-2-(4′-methylsulfinylphenyl)-5-(4′-pyridyl)-imidazole], the “αSMA protein expression” value in experiment [1] is recorded as “significantly different”.
Regarding `COc1nccc(-c2c(-c3ccc(F)cc3)ncn2C2CCC(O)CC2)n1` (stereo not drawn) [SB239063, trans-1-(4-Hydroxycyclohexyl)-4-(4-fluorophenyl)-5-(2-methoxypyridimidin-4-yl)imidazole], in experiment [1], the “αSMA protein expression” value is “significantly different”.
For `Oc1ccc(-c2nc(-c3ccc(F)cc3)c(-c3ccncc3)[nH]2)cc1` [SB202190, 4-(4-Fluorophenyl)-2-(4-hydroxyphenyl)-5-(4-pyridyl)1H-imidazole], the “αSMA expression (ratio of αSMA to β actin), TGF-β1-induced increase” value in experiment [1] was “inhibits the TGF-β1 induced increase in expression of αSMA”; in experiment [1] (listed as p38 inhibitor) it was “significantly different”. In addition, the entries for the “αSMA expression (corrected with β-actin)” value with human dermal fibroblasts and in the experiment with human dermal fibroblasts (listed as p38 inhibitor) were “significantly decreased” and “significantly different”, respectively. Further, the “αSMA staining / number of SMA-positive cells” value in experiment [2] is listed as “mitigated”. Also, the “αSMA expression, T1 + p38 inhibitor versus control” value in experiment [3] (10 μM inhibitor + 2 ng/ml TGF-β1, 9 days (lane 4 vs lane 1)) is “decreased as compared with control”. The “αSMA expression, T1 + p38 inhibitor versus T1” value in experiment [3] (10 μM inhibitor + 2 ng/ml TGF-β1, 9 days (lane 4 vs lane 2), p<0.001) is reported as “significantly lower than T1; also recorded: significantly different”. Further, the “αSMA expression, p38 inhibitor alone” value in experiment [3] (10 μM inhibitor, 9 days (lane 3), compared with control, p<0.05) is reported as “significantly decreased; also recorded: significantly lower than others”. Also, the “αSMA levels on day 1 (D1)” value in experiment [4] (then p38inh medium 1 day, compared with T1 control) is reported as “continued to increase”. The “αSMA levels on day 2 (D2)” value in experiment [4] (then p38inh medium 2 days, compared with RM sample, p<0.05) was “significantly lower than the RM sample; also recorded: decreased significantly”. In experiment [4] (then p38inh medium 3 days, compared with RM sample), the “αSMA levels on day 3 (D3)” value is given as “continued to be lower than that in the RM sample”.
